Structures can show the parent of a compound that is named as a salt.
melting point [°C]	SMILES
280 to 282	CS(=O)(=O)O.N=C(N)NC(=O)c1ccc2c(c1)S(=O)(=O)Cc1cc(Cl)ccc1O2 [Example 3, N-(2-Chloro-10,10-dioxo-10,11-dihydro-5-oxa-10lambda*6*-thia-dibenzo[a,d]cycloheptene-8-carbonyl)-guanidine, methanesulfonic acid salt]
221 to 222	CS(=O)(=O)O.Cc1cc(C(=O)NC(=N)N)cc2c1Oc1c(Cl)cc(S(=O)(=O)Nc3nnc(C4CC4)s3)cc1CS2(=O)=O [Example 51, 4-Chloro-8-guanidinocarbonyl-6-methyl-10,10-dioxo-10,11-dihydro-5-oxa-10lambda*6*-thia-dibenzo[a,d]cycloheptene-2-sulfonic acid (5-cyclopropyl-[1,3,4]thiadiazol-2-yl)-amide methane sulfonic acid salt]
190 to 192	CS(=O)(=O)O.CS(=O)(=O)O.Cc1cc(C(=O)NC(=N)N)cc2c1Oc1c(Cl)cc(NC(=O)CNC3CCCC3)cc1CS2(=O)=O [Example 140, N-(4-Chloro-8-guanidinocarbonyl-6-methyl-10,10-dioxo-10,11-dihydro-5-oxa-10lambda*6*-thia-dibenzo[a,d]cyclohepten-2-yl)-2-cyclopentylamino-acetamide dimesylate]
203 to 205	CS(=O)(=O)O.CS(=O)(=O)O.CS(=O)(=O)O.Cc1cc(C(=O)NC(=N)N)cc2c1Oc1c(Cl)cc(N3CCNCC3)cc1CS2(=O)=O [Example 104, N-(4-Chloro-6-methyl-10,10-dioxo-2-piperazin-1-yl-10,11-dihydro-5-oxa-10lambda*6*-thia-dibenzo[a,d]cycloheptene-8-carbonyl)-guanidine trimesylate]
230 to 232	CS(=O)(=O)O.CS(=O)(=O)O.CS(=O)(=O)O.Cc1ccc(CNc2cc(Cl)c3c(c2)CS(=O)(=O)c2cc(C(=O)NC(=N)N)cc(C)c2O3)s1 [Example 164, N-{4-Chloro-6-methyl-2-[(5-methyl-thiophen-2-ylmethyl)-amino]-10,10-dioxo-10,11-dihydro-5-oxa-10lambda*6*-thia-dibenzo[a,d]cycloheptene-8-carbonyl}-guanidine trimesylate]
218 to 220	CS(=O)(=O)O.CS(=O)(=O)O.CS(=O)(=O)O.Cc1cc(C(=O)NC(=N)N)cc2c1Oc1c(Cl)cc(NCCN3CCN(CCO)CC3)cc1CS2(=O)=O [Example 70, N-(4-Chloro-2-{2-[4-(2-hydroxy-ethyl)-piperazin-1-yl]-ethylamino}-6-methyl-10,10-dioxo-10,11-dihydro-5-oxa-10lambda*6*-thia-dibenzo{a,d}cycloheptene-8-carbonyl)-guanidine trimesylate]
178 to 179	CS(=O)(=O)O.CS(=O)(=O)O.Cc1cc(C(=O)NC(=N)N)cc2c1Oc1c(Cl)cc(N(CCN3CCCC3)C(=O)C3CC3)cc1CS2(=O)=O [Example 76, Cyclopropanecarboxylic acid (4-chloro-8-guanidinocarbonyl-6-methyl-10,10-dioxo-10,11-dihydro-5-oxa-10lambda*6*-thia-dibenzo[a,d]cyclohepten-2-yl)-(2-pyrrolidin-1-yl-ethyl)-amide dimesylate]
196 to 198	CS(=O)(=O)O.CS(=O)(=O)O.Cc1cc(C(=O)NC(=N)N)cc2c1Oc1c(Cl)cc(N3CCN(C(C)C)CC3=O)cc1CS2(=O)=O [Example 60, N-[4-Chloro-2-(4-isopropyl-2-oxo-piperazin-1-yl)-6-methyl-10,10-dioxo-10,11-dihydro-5-oxa-10lambda*6*-thia-dibenzo[a,d]cycloheptene-8-carbonyl]-guanidine dimesylate]
255 to 257	CCN1CCN(c2cc(Cl)c3c(c2)CS(=O)(=O)c2cc(C(=O)NC(=N)N)cc(C)c2O3)CC1.CS(=O)(=O)O.CS(=O)(=O)O [Example 116, N-[4-Chloro-2-(4-ethyl-piperazin-1-yl)-6-methyl-10,10-dioxo-10,11-dihydro-5-oxa-10lambda*6*-thia-dibenzo[a,d]cycloheptene-8-carbonyl]-guanidine dimesylate]
242 to 244	Cc1cc(C(=O)N=C(N)N)cc2c1Oc1c(Cl)cc(CN)cc1CS2(=O)=O (as salt: mesylate) [Example 198, N-(2-Aminomethyl-4-chloro-6-methyl-10,10-dioxo-10,11-dihydro-5-oxa-10lambda*6*-thia-dibenzo[a.d]cycloheptene-8-carbonyl)-guanidine trimesylate]
195 to 196	Cc1cc(C(=O)N=C(N)N)cc2c1Oc1c(Cl)cc(N3CCN(C4CC4)CC3=O)cc1CS2(=O)=O (as salt: mesylate) [Example 58, N-[4-Chloro-2-(4-cyclopropyl-2-oxo-piperazin-1-yl)-6-methyl-10,10-dioxo-10,11-dihydro-5-oxa-10lambda*6*-thia-dibenzo[a,d]cycloheptene-8-carbonyl]-guanidine dimesylate]
222	CS(=O)(=O)O.CS(=O)(=O)O.Cc1cc(C(=O)NC(=N)N)cc2c1Oc1c(Cl)cc(NC(=O)CN3CCN(c4cccc(C(F)(F)F)c4)CC3)cc1CS2(=O)=O [Example 145, N-(4-Chloro-8-guanidinocarbonyl-6-methyl-10,10-dioxo-10,11-dihydro-5-oxa-10lambda*6*-thia-dibenzo[a,d]cyclohepten-2-yl)-2-[4-(3-trifluoromethyl-phenyl)-piperazin-1-yl]-acetamide dimesylate]
252 to 254	CS(=O)(=O)O.CS(=O)(=O)O.Cc1cc(C(=O)NC(=N)N)cc2c1Oc1c(Cl)cc(NC(=O)Cn3ccnc3)cc1CS2(=O)=O [Example 137, N-(4-Chloro-8-guanidinocarbonyl-6-methyl-10,10-dioxo-10,11-dihydro-5-oxa-10lambda*6*-thia-dibenzo[a,d]cyclohepten-2-yl)-2-imidazol-1-yl-acetamide dimesylate]
243 to 245	CS(=O)(=O)O.CS(=O)(=O)O.Cc1cc(C(=O)NC(=N)N)cc2c1Oc1c(Cl)cc(NCCNCc3cccs3)cc1CS2(=O)=O [Example 86, N-(4-Chloro-6-methyl-10,10-dioxo-2-{2-[(thiophen-2-ylmethyl)-amino]-ethylamino}-10,11-dihydro-5-oxa-10lambda*6*thia-dibenzo[a,d]cycloheptene-8-carbonyl)-guanidine dimesylate]
198 to 200	CS(=O)(=O)O.CS(=O)(=O)O.Cc1cc(C(=O)NC(=N)N)cc2c1Oc1c(Cl)cc(N(CCN3CCCC3)C(=O)OCC(C)C)cc1CS2(=O)=O [Example 74, (4-Chloro-8-guanidinocarbonyl-6-methyl-10,10-dioxo-10,11-dihydro-5-oxa-10lambda*6*-thia-dibenzo[a,d]cycloheptene-2-yl)-(2-pyrrolidin-1-yl-ethyl)-carbamic acid isobutylester dimesylate]
292 to 294	Cc1cc2c(cc1C(=O)N=C(N)N)S(=O)(=O)Cc1ccccc1N2 (as salt: sulfonic acid salt) [Example 183, N-(7-Methyl-10,10-dioxo-10,11-dihydro-5H-10lambda*6*-thia-5-aza-dibenzo[a.d]cycloheptene-8-carbonyl)-guanidine, methane sulfonic acid salt]
224 to 225	COc1ccccc1CNCCNc1cc(Cl)c2c(c1)CS(=O)(=O)c1cc(C(=O)NC(=N)N)cc(C)c1O2.CS(=O)(=O)O.CS(=O)(=O)O [Example 90, N-{4-Chloro-2-[2-(2-methoxy-benzylamino)-ethylamino]-6-methyl-10,10-dioxo-10,11-dihydro-5-oxa-10lambda*6*-thia-dibenzo[a,d]cycloheptene-8-carbonyl}-guanidine dimesylate]
184 to 185	CCCCCCCCCCN1CCN(c2cc(Cl)c3c(c2)CS(=O)(=O)c2cc(C(=O)NC(=N)N)cc(C)c2O3)CC1.CS(=O)(=O)O.CS(=O)(=O)O [Example 105, N-[4-Chloro-2-(4-decyl-piperazin-1-yl)-6-methyl-10,10-dioxo-10,11-dihydro-5-oxa-10lambda*6*-thia-dibenzo[a,d]cycloheptene-8-carbonyl]-guanidine dimesylate]
250 to 251	CCCCCN1CCN(c2cc(Cl)c3c(c2)CS(=O)(=O)c2cc(C(=O)NC(=N)N)cc(C)c2O3)CC1.CS(=O)(=O)O.CS(=O)(=O)O [Example 106, N-[4-Chloro-6-methyl-10,10-dioxo-2-(4-pentyl-piperazin-1-yl)-10,11-dihydro-5-oxa-10-lambda*6*-thia-dibenzo[a,d]cycloheptene-8-carbonyl]-guanidine dimesylate]
185 to 187	CS(=O)(=O)O.CS(=O)(=O)O.CS(=O)(=O)O.Cc1cc(C(=O)NC(=N)N)cc2c1Oc1c(Cl)cc(N3CCN(CCN4CCOCC4)CC3)cc1CS2(=O)=O [Example 121, N-{4-Chloro-6-methyl-2-[4-(2-morpholin-4-yl-ethyl)-piperazin-1-yl]-10,10-dioxo-10,11-dihydro-5-oxa-10lambda*6*-thia-dibenzo[a,d]cycloheptene-8-carbonyl}-guanidine trimesylate]
184 to 186	CS(=O)(=O)O.CS(=O)(=O)O.CS(=O)(=O)O.Cc1cc(C(=O)NC(=N)N)cc2c1Oc1c(Cl)cc(NCCN3CCN(C)CC3)cc1CS2(=O)=O [Example 62, N-{4-Chloro-6-methyl-2-[2-(4-methylpiperazin-1-yl)-ethylamino]-10,10-dioxo-10,11-dihydro-5-oxa-10lambda*6*-thia-dibenzo[a,d]cycloheptene-8-carbonyl}-guanidine trimesylate]
280 to 285	Cc1cc(C(=O)N=C(N)N)cc2c1Oc1c(Cl)cc(N3CCN(Cc4ccccc4)CC3)cc1CS2(=O)=O (as salt: mesylate) [Example 118, N-[2-(4-Benzyl-piperazin-1-yl)-4-chloro-6-methyl-10,10-dioxo-10,11-dihydro-5-oxa-10lambda*6*-thia-dibenzo[a,d]cycloheptene-8-carbonyl]-guanidine dimesylate]
306 to 307	CS(=O)(=O)O.CS(=O)(=O)O.Cc1cc(C(=O)NC(=N)N)cc2c1Oc1c(Cl)cc(N3CCN(C(=O)c4ccc[nH]4)CC3)cc1CS2(=O)=O [Example 110, N-{4-Chloro-6-methyl-10,10-dioxo-2-[4-(1H-pyrrole-2-carbonyl)-piperazin-1-yl]-10,11-dihydro-5-oxa-10lambda*6*-thia-dibenzo[a,d]cycloheptene-8-carbonyl}-guanidine dimesylate]

Reference: patent US8183234B2, “Tricyclic guanidine derivatives as sodium-proton exchange inhibitors” (Piramal Life Sciences Limited, priority 2004, dated 2012)
